# Measured values from ChEMBL document CHEMBL3991948, “Rab7 GTPase inhibitors and related methods of treatment” (2014).
# Activity calls are given as the source filed them. The rule behind the calls is not given here.
# Legend:
# [1] = target: Ras-related protein Rab-7a (Homo sapiens) (UniProt P51149); assay: Displacement of BODIPY-GTP from nucleotide binding site of wild-type GST-tagged Rab7 GTPase (unknown origin) expressed in Escherichia coli BL21(DE3) in EDTA buffer assessed as residual activity after 2 hrs by flow cytometry
# Ras-related protein Rab-7a (Homo sapiens), sequence (P51149 whole entry): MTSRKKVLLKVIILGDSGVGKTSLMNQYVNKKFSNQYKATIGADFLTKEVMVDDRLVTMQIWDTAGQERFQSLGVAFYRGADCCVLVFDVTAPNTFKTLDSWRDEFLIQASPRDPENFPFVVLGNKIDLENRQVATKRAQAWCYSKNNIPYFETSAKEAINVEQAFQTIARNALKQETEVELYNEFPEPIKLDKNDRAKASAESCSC
# [2] = target: T1, Integrin alpha-4/beta-1 (Homo sapiens) (UniProt P05556+P13612); assay: Inhibition of FITC-LDV peptide binding to VLA4 in human U937 deltaST cells at 10 to 50 uM by FACScan flow cytometry; assay type: cell-based
# [3] = Cytotoxicity against human U937 cells assessed as cell viability at 100 uM after 24 hrs by cell counting method (reference value: 94%); assay type: cell-based, U-937; details: read-out: Activity
# [4] = target: Ras-related protein Rab-7a (Homo sapiens) (UniProt P51149); assay: Displacement of BODIPY-GTP from nucleotide binding site of wild-type GST-tagged Rab7 GTPase (unknown origin) expressed in Escherichia coli BL21(DE3) in Mg buffer assessed as residual activity after 2 hrs by flow cytometry
# [5] = target: Ras-related protein Rab-7a (Homo sapiens) (UniProt P51149); assay: Displacement of BODIPY-GTP from nucleotide binding site of wild-type GST-tagged Rab7 GTPase (unknown origin) expressed in Escherichia coli BL21(DE3) after 2 hrs by flow cytometry relative to untreated control
# [6] = Chemical stability of the compound after 72 hrs in presence of 1 to 2.4 mg L-glutathione by LCMS analysis; assay type: physicochemical
# [7] = target: T1, Integrin alpha-4/beta-1 (Homo sapiens); assay: Inhibition of FITC-LDV peptide binding to VLA4 in human U937 deltaST cells at 10 to 100 uM by FACScan flow cytometry; assay type: cell-based
# [8] = target: T1, Integrin alpha-4/beta-1 (Homo sapiens); assay: Inhibition of FITC-LDV peptide binding to VLA4 in human U937 deltaST cells at 30 uM by FACScan flow cytometry; assay type: cell-based
smiles,measurement,setting,value
O=C(NC(=S)Nc1sc2c(c1C(=O)O)CCOC2)c1ccccc1,Activity,[1],91%
same,inhibition,[2],Active
same,"viability at 24 h, 100 µM",[3],92%
same,Activity,[4],45%
CC1(C)Cc2c(sc(NC(=S)NC(=O)c3ccc(F)cc3)c2C(=O)O)CO1,Activity,[1],100%
Nc1nc2c(ncn2[C@@H]2O[C@H](COP(=O)(O)OP(=O)(O)O)[C@@H](O)[C@H]2O)c(=O)[nH]1,inhibition,[5],Active
Nc1nc2c(ncn2[C@@H]2O[C@H](COP(=O)(O)OP(=O)(O)OP(=O)(O)O)[C@@H](O)[C@H]2O)c(=O)[nH]1,inhibition,[5],Active
CC1Cc2c(sc(NC(=S)NC(=O)c3ccccc3)c2C(=O)O)CO1 (centres undefined),Activity,[1],91%
same,"viability at 24 h, 100 µM",[3],94%
same,Activity,[4],56%
CC1(C)Cc2c(sc(NC(=S)NC(=O)c3ccccc3)c2C(=O)O)CO1,Stability,[6],Stable
same,inhibition,[7],Active
CC1(C)Cc2c(sc(NC(=O)NC(=O)c3ccccc3)c2C(=O)O)CO1,inhibition,[8],Active
same,"viability at 24 h, 100 µM",[3],98%
